Laboratory results as given in publication PMC10914731, “Homo-BacPROTAC-induced degradation of ClpC1 as a strategy against drug-resistant mycobacteria” (Nature Communications, 2024).
In brackets after ≈: the same amount, converted by molar mass. Several values for one entry are separate records, joined by “and”; a condition that tells them apart may be missing. Identical values can stand only once. Where a SMILES comes first, the peptide text is derived from it. [ ]: non-standard residue; d: D form. NMeLeu(5-OH,4R) = CN[C@@H](C[C@@H](C)CO)C(=O)O; Phe(βR-OMe) = CO[C@H](c1ccccc1)[C@H](N)C(=O)O; Trp(1-Me) = Cn1cc(C[C@H](N)C(=O)O)c2ccccc21; NMeL = CN[C@@H](CC(C)C)C(=O)O; Pra = C#CC[C@H](N)C(=O)O

Experiments:
[1] = assay type: in vitro ADME, Rat
[2] = system: Mtb (katG del) ATCC 35822; assay: microbe, parasite or virus in culture; assay type: cell-based; details: Mycobacterium tuberculosis
Mtb # 11291 = assay: microbe, parasite or virus in culture; assay type: cell-based; details: single well replicates
Staphylococcus aureus = assay: MIC ESKAPES panel, Staphylococcus aureus; assay type: cell-based
Description: (§1) Minimum inhibitory concentration (MIC) against ESKAPES panel of Gram positive and Gram negative pathogens (Enterococcus faecium, Staphylococcus aureus, Klebsiella pneumoniae, Acinetobacter baumannii, Pseudomonas aeruginosa, Enterobacter cloacae and Salmonella typhimurium [ESKAPES panel]) were determined at the FNDR by the standard broth dilution method [CLSI, M100]. […] Mueller Hinton broth (MHB) medium was used to grow ESKAPES panel strains. The individual cultures were added as 200 μL (inoculum of 3–7 × 10^5 cfu/ml) to the respective assay plates in each well to all columns, except the media control (200 μL of medium). […] The assay plates were incubated at 37 °C, and the results were noted on the 2nd day as turbidometric readout. The clear wells indicated inhibition of growth, while the turbid wells indicated uninhibited growth.

Enterobacter cloacae = assay: MIC ESKAPES panel, Enterobacter cloacae; assay type: cell-based
Description: as §1

[3] = system: replicating Mtb H37Rv cells; assay: Resazurin growth assay, replicating Mtb H37Rv (Supplementary Fig. 2); assay type: cell-based, Mycobacterium tuberculosis; details: three replicate columns

For `C#CC[C@@H]1NC(=O)[C@H](CC(C)C)N(C)C(=O)[C@H](C(C)C)NC(=O)[C@H]([C@H](OC)c2ccccc2)NC(=O)[C@H](C)NC(=O)[C@H](C[C@@H](C)CO)N(C)C(=O)[C@H](Cc2cn(C)c3ccccc23)NC1=O` [Compound 10] (cyclo(A[Phe(βR-OMe)]V[NMeL][Pra][Trp(1-Me)][NMeLeu(5-OH,4R)])), the “Hepatocyte Stability Rat QH” value ([1]; Rat) was 69.830%, the “Hepatocyte Rat” value ([1]; clearance in hepatocytes) was 70 %Qh and the MIC ([2]; ATCC35822, M. tuberculosis ATCC 35822, single well replicates) was 1.56 µM (≈ 1.42 µg/mL). For the same compound, the MIC ([2]; ATCC35822, Mtb (katG del) ATCC 35822, mean ± SD, n = 3 well replicates) was 1.6 µM (≈ 1.46 µg/mL), the “MIC Mtb # 11291” value (Mtb # 11291) was 0.36 mg/L (≈ 0.394 µM) and the MIC (Mtb # 11291; read-out: MIC Mtb # 11291) was 0.39 µM (≈ 0.356 µg/mL). The MIC (Staphylococcus aureus; Gram-Positive Bacteria, replicates 1-3) was >50 µM, the MIC (Staphylococcus aureus; Staphylococcus aureus, Gram positive, n = 3 well replicates) was > 50 µM and the MIC (Staphylococcus aureus; Staphylococcus aureus, Gram-Positive Bacteria, replicates 1-3) was > 45.6 mg/L. For the same compound, the MIC (Enterobacter cloacae; Enterobacter cloacae, Gram negative, n = 3 well replicates) was > 50 µM, the MIC (Enterobacter cloacae; Enterobacter cloacae, Gram-Negative Bacteria, replicates 1-3) was > 45.6 mg/L and the MIC (Enterobacter cloacae; Gram-Negative Bacteria, replicates 1-3) was >50 µM. The “Supplementary Figure 2 dose-response value, replicating H37Rv cells” value ([3]; Conc. 0.0488281 µM) was 96.6607 and 85.0023 and 97.6783, the “Supplementary Figure 2 dose-response value, replicating H37Rv cells” value ([3]; Conc. 0.0976562 µM) was 91.646 and 99.7213 and 83.381 and the “Supplementary Figure 2 dose-response value, replicating H37Rv cells” value ([3]; Conc. 0.195312 µM) was 93.9637 and 88.7594 and 93.2053. The “Supplementary Figure 2 dose-response value, replicating H37Rv cells” value ([3]; Conc. 0.390625 µM) was 95.6392 and 103.405 and 93.9985, the “Supplementary Figure 2 dose-response value, replicating H37Rv cells” value ([3]; Conc. 0.78125 µM) was 94.5519 and 83.8686 and 95.6043 and the “Supplementary Figure 2 dose-response value, replicating H37Rv cells” value ([3]; Conc. 1.5625 µM) was 94.1959 and 100.812 and 95.4766. For the same compound, the “Supplementary Figure 2 dose-response value, replicating H37Rv cells” value ([3]; Conc. 3.125 µM) was 91.4989 and 87.2697 and 84.1472, the “Supplementary Figure 2 dose-response value, replicating H37Rv cells” value ([3]; Conc. 6.25 µM) was 90.8682 and 96.9509 and 92.2612 and the “Supplementary Figure 2 dose-response value, replicating H37Rv cells” value ([3]; Conc. 25 µM) was 58.5243 and 57.8085 and 53.4206. The “Supplementary Figure 2 dose-response value, replicating H37Rv cells” value ([3]; Conc. 50 µM) was 10.7146 and 27.4379 and 10.7068 and the “Supplementary Figure 2 dose-response value, replicating H37Rv cells” value ([3]; Conc. 100 µM) was 10.7533 and 7.29 and 10.5908.
